Experiments:
CD73 [1] = biological target: T1, CD73 (Homo sapiens, UniProt P21589); assay: MDA-MB-231 Cell Based CD73 Activity Assay (DMEM); parameters: endogenous in cells; host or cells: MDA-MB-231-GFP; conditions: MDA-MB-231-GFP cells, DMEM with 10% human plasma, overnight compound treatment, 200 uM AMP, 100 mins
T1 sequence (P21589 27-549): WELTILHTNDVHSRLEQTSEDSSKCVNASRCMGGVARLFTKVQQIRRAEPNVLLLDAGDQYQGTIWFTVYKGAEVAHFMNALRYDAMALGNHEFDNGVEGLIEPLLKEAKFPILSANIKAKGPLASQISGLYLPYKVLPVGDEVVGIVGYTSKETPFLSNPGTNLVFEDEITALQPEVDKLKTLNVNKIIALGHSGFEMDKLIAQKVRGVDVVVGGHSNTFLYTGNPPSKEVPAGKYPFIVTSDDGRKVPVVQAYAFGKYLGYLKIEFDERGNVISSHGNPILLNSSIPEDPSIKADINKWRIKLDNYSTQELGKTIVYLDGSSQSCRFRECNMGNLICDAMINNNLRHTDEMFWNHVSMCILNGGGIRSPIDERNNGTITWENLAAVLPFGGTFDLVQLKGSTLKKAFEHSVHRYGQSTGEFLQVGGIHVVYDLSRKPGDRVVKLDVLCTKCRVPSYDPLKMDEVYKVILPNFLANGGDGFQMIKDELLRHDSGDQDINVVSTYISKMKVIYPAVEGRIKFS
Procedure: Cells were plated into assay plate with compounds pre-spotted, for an overnight compound treatment. 50 uL of 400 uM AMP (final concentration will be 200 uM) was added using Bio-tek dispenser. Plates were incubated for 100 mins. 20 uL of supernatant was transferred into 384-well NUNC plate pre-filled with 60 ul Quench buffer (80% organic and 20% water+0.1% FA) with internal standard. The plates were spun down at 4500 rpm for 20 mins, then 20 ul of supernatant was transferred to another Nunc plate prefilled with 80 ul of water. The samples were analyzed using Rapid fire.

CD73 [2] = biological target: T1, CD73; assay: CD73 Biochemical IC50 Assay; conditions: CD73 enzyme (R&D system) final 0.3 nM, final AMP 15 uM, 60 mins incubation, Rapid fire
Procedure: CD73 Biochemical IC50 Assay
Compound serial dilutions were pre-spotted into Thermo Nunc assay plate. 50 μL CD73 enzyme buffer (CD73 purchased from R&D system=0.6 nM, 25 mM Tris, pH 7.4, 5 mM MgCl2, 1 mM NaH2PO4) was added into the assay plate and incubated for 15 mins. […] After incubation for 60 mins, the supernatant 20 uL was transferred into 384-well NUNC plate pre-filled with 60 ul Quench buffer (80% organic and 20% water+0.1% FA) with internal standard. The plate was spun down at 4500 rpm for 20 mins, then 20 μl of supernatant was transferred to another Nunc plate prefilled with 80 μl of water. The samples were run using Rapid fire.

SMILES	EC50 (CD73 [1]) [nM]	IC50 (CD73 [2]) [nM]
Cc1nc(-c2c[nH]c(=O)[nH]c2=O)cc(N2C[C@H](Oc3cc(C4(C(F)(F)F)CC4)ccn3)C(F)(F)C2)n1 [Example 25, (S)-6-(3,3-difluoro-4-((4-(1-(trifluoromethyl)cyclopropyl)pyridin-2-yl)oxy)pyrrolidin-1-yl)-2-methyl-[4,5′-bipyrimidine]-2′,4′ (1′H,3′H)-dione]	5.31	4
Cc1nc(OCC(F)(F)COC(=O)NC(C)C)cc(-c2c[nH]c(=O)[nH]c2=O)n1 [Example 26]	> 50	7.06
Cc1nc(-c2c[nH]c(=O)[nH]c2=O)cc(N2C[C@H](Oc3cc4c(cn3)c(C)nn4CC(F)(F)F)C(F)(F)C2)n1 [Example 28, (S)-6-(3,3-difluoro-4-((3-methyl-1-(2,2,2-trifluoroethyl)-1H-pyrazolo[4,3-c]pyridin-6-yl)oxy)pyrrolidin-1-yl)-2-methyl-[4,5′-bipyrimidine]-2′,4′ (1′H,3′H)-dione]	6.38	7.16
Cc1nc(-c2c[nH]c(=O)[nH]c2=O)cc(N2C[C@H](OC(=O)NC(C)C)C(F)(F)C2)n1 [Example 29, (S)-4,4-difluoro-1-(2-methyl-2′,4′-dioxo-1′,2′,3′,4′-tetrahydro-[4,5′-bipyrimidin]-6-yl)pyrrolidin-3-yl isopropylcarbamate]	> 50	13.1
Cc1nc(-c2c[nH]c(=O)[nH]c2=O)cc(N2C[C@H](OC(=O)NC3(C(F)(F)F)CC3)C(F)(F)C2)n1 [Example 30, (S)-4,4-difluoro-1-(2-methyl-2′,4′-dioxo-1′,2′,3′,4′-tetrahydro-[4,5′-bipyrimidin]-6-yl)pyrrolidin-3-yl (1-(trifluoromethyl)cyclopropyl)carbamate]	34.8	13
